Measured values as given in patent US20080161232A1, “C5a Receptor Antagonist” (JERINI AG, priority 2005, published 2008).
Starred links: 1 amine or outer side, 2 acyl side, 3 side chain; linkers in the order of their positions; H or OH if unused. Positions of bridges follow the written chain, without caps; N, C: chain ends. Non-standard residues stand in square brackets, D forms with d. Residues, ends and D or L forms follow the SMILES beside them. *: point of attachment. Phe(4-guanidino) = N=C(N)Nc1ccc(C[C@H](N)C(=O)O)cc1; Phe(Nα-CONH2) = NC(=O)N[C@@H](Cc1ccccc1)C(=O)*; dβ3hPhg = O=C(C[C@H](N[*:1])c1ccccc1)[*:2]; Phe(4-NH2) = Nc1ccc(C[C@H](N)C(=O)O)cc1; X5 = CCN(CC)CCC[C@H](N[*:1])C(=O)[*:2]; dPhe(2-Me) = Cc1ccccc1C[C@@H](N)C(=O)O; Bta = N[C@@H](Cc1csc2ccccc12)C(=O)O; d(hCha) = N[C@H](CCC1CCCCC1)C(=O)O; Hydrocinnamoyl = O=C(CCc1ccccc1)*; Hyp = O=C(O)[C@@H]1C[C@@H](O)CN1; hArg = N=C(N)NCCCC[C@H](N)C(=O)O; 3Pal = N[C@@H](Cc1cccnc1)C(=O)O; dCha = N[C@H](CC1CCCCC1)C(=O)O; Phg = N[C@H](C(=O)O)c1ccccc1; Nle = CCCC[C@H](N)C(=O)O; Orn = NCCC[C@H](N)C(=O)O; Aze = O=C(O)[C@@H]1CCN1; Dab = NCC[C@H](N)C(=O)O; Fluoroacetyl = O=C(CF)*; X13 = c1ccc2c(c1)nnn2C*; Piv = CC(C)(C)C(=O)*; Acm = CC(=O)NC*; Moc = COC(=O)*

biological target: T1, human C5aR(CD88) (Homo sapiens, UniProt P21730); test: Determination of the IC50 value in an enzyme release assay (functional assay, antagonistic activity); assay type: cell-based; conditions: activity (group), antagonistic activity; IC50 group in enzyme release assay, RBL cells expressing human C5aR(CD88)
T1 construct: expressed in transfected cells; host or cells: rat basophilic leukemia cells (RBL)
T1 sequence (P21730 1-350): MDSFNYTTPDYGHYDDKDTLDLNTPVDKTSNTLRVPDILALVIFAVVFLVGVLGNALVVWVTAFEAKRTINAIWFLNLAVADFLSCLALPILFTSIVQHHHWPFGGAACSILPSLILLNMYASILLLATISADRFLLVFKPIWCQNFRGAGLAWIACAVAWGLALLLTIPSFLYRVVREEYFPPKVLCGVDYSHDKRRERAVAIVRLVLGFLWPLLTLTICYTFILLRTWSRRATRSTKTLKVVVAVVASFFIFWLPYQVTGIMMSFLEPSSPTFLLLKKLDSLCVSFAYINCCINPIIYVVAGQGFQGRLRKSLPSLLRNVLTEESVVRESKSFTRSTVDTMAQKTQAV

SMILES | IC50 [nM]
NCCC[C@H](NC(=O)[C@H](Cc1ccccc1)NC(=O)CF)C(=O)N1CCC[C@H]1C(=O)N[C@H](CC1CCCCC1)C(=O)N[C@@H](Cc1csc2ccccc12)C(=O)N[C@@H](Cc1ccccc1)C(N)=O [Compound 142, FH2C—CO-Phe-Orn-Pro-cha-Bta-Phe-NH2] (Fluoroacetyl-F[Orn]P[dCha][Bta]F-NH2) | 20 to 50

same assay, conditions: antagonistic activity; IC50 group in enzyme release assay, RBL cells expressing human C5aR(CD88); read-out: activity (group)

SMILES | IC50 [nM]
CC(=O)N[C@@H](Cc1ccccc1)C(=O)N[C@@H](CSCn1nnc2ccccc21)C(=O)N1CCC[C@H]1C(=O)N[C@H](CC1CCCCC1)C(=O)N[C@@H](Cc1csc2ccccc12)C(=O)N[C@@H](Cc1ccccc1)C(N)=O [Compound 119, Ac-Phe-Eec-Pro-cha-Bta-Phe-NH2] (Ac-FC(X13)P[dCha][Bta]F-NH2) | 50 to 200
CCCC[C@H](NC(=O)[C@H](Cc1ccccc1)NC(C)=O)C(=O)N1CCC[C@H]1C(=O)N[C@H](CC1CCCCC1)C(=O)N[C@@H](Cc1csc2ccccc12)C(=O)N[C@@H](Cc1ccccc1)C(N)=O [Compound 120, Ac-Phe-Nle-Pro-cha-Bta-Phe-NH2] (Ac-F[Nle]P[dCha][Bta]F-NH2) | 50 to 200
CC(=O)N[C@@H](Cc1ccccc1)C(=O)N[C@@H](CCCCNC(=N)N)C(=O)N1CCC[C@H]1C(=O)N[C@H](CC1CCCCC1)C(=O)N[C@@H](Cc1csc2ccccc12)C(=O)N[C@@H](Cc1ccccc1)C(N)=O [Compound 121, Ac-Phe-Har-Pro-cha-Bta-Phe-NH2] (Ac-F[hArg]P[dCha][Bta]F-NH2) | 20 to 50
CC(=O)N[C@@H](Cc1ccccc1)C(=O)N[C@@H](CCCNC(=N)N)C(=O)N1CCC[C@H]1C(=O)N[C@H](CC1CCCCC1)C(=O)N[C@@H](Cc1csc2ccccc12)C(=O)N[C@@H](Cc1ccccc1)C(N)=O [Compound 122, Ac-Phe-Arg-Pro-cha-Bta-Phe-NH2] (Ac-FRP[dCha][Bta]F-NH2) | 20 to 50
CC(=O)NCSC[C@H](NC(=O)[C@H](Cc1ccccc1)NC(C)=O)C(=O)N1CCC[C@H]1C(=O)N[C@H](CC1CCCCC1)C(=O)N[C@@H](Cc1csc2ccccc12)C(=O)N[C@@H](Cc1ccccc1)C(N)=O [Compound 123, Ac-Phe-Cys(Acm)-Pro-cha-Bta-Phe-NH2] (Ac-FC(Acm)P[dCha][Bta]F-NH2) | 200 to 2000
CC(=O)N[C@@H](Cc1ccccc1)C(=O)N[C@@H](Cc1cccnc1)C(=O)N1CCC[C@H]1C(=O)N[C@H](CC1CCCCC1)C(=O)N[C@@H](Cc1csc2ccccc12)C(=O)N[C@@H](Cc1ccccc1)C(N)=O [Compound 124, Ac-Phe-Mpa-Pro-cha-Bta-Phe-NH2] (Ac-F[3Pal]P[dCha][Bta]F-NH2) | 50 to 200
CC(=O)N[C@@H](CC(=O)N[C@@H](CCCN)C(=O)N1CCC[C@H]1C(=O)N[C@H](CC1CCCCC1)C(=O)N[C@@H](Cc1csc2ccccc12)C(=O)N[C@@H](Cc1ccccc1)C(N)=O)c1ccccc1 [Compound 125, Ac-Eby-Orn-Pro-cha-Bta-Phe-NH2] (Ac-[dβ3hPhg][Orn]P[dCha][Bta]F-NH2) | 20 to 50
CC(=O)N[C@H](C(=O)N[C@@H](CCCN)C(=O)N1CCC[C@H]1C(=O)N[C@H](CC1CCCCC1)C(=O)N[C@@H](Cc1csc2ccccc12)C(=O)N[C@@H](Cc1ccccc1)C(N)=O)c1ccccc1 [Compound 126, Ac-Phg-Orn-Pro-cha-Bta-Phe-NH2] (Ac-[Phg][Orn]P[dCha][Bta]F-NH2) | 50 to 200
CC(=O)N[C@@H](Cc1ccccc1)C(=O)N[C@@H](Cc1ccc(N)cc1)C(=O)N1CCC[C@H]1C(=O)N[C@H](CC1CCCCC1)C(=O)N[C@@H](Cc1csc2ccccc12)C(=O)N[C@@H](Cc1ccccc1)C(N)=O [Compound 127, Ac-Phe-Paf-Pro-cha-Bta-Phe-NH2] (Ac-F[Phe(4-NH2)]P[dCha][Bta]F-NH2) | 200 to 2000
NCCC[C@H](NC(=O)[C@H](Cc1ccccc1)NC(N)=O)C(=O)N1CCC[C@H]1C(=O)N[C@H](CC1CCCCC1)C(=O)N[C@@H](Cc1csc2ccccc12)C(=O)N[C@@H](Cc1ccccc1)C(N)=O [Compound 128, H2N—CO-Phe-Orn-Pro-cha-Bta-Phe-NH2] ({Phe(Nα-CONH2)}-[Orn]P[dCha][Bta]F-NH2) | 20 to 50
COC(=O)N[C@@H](Cc1ccccc1)C(=O)N[C@@H](CCCN)C(=O)N1CCC[C@H]1C(=O)N[C@H](CC1CCCCC1)C(=O)N[C@@H](Cc1csc2ccccc12)C(=O)N[C@@H](Cc1ccccc1)C(N)=O [Compound 129, Me-O—CO-Phe-Orn-Pro-cha-Bta-Phe-NH2] (Moc-F[Orn]P[dCha][Bta]F-NH2) | 50 to 200
CC(=O)N[C@@H](Cc1ccccc1)C(=O)N[C@@H](CCCN)C(=O)N1CCC[C@H]1C(=O)N[C@H](CCC1CCCCC1)C(=O)N[C@@H](Cc1c[nH]c2ccccc12)C(=O)N[C@@H](Cc1ccccc1)C(=O)O [Compound 132, Ac-Phe-Orn-Pro-hch-Trp-Phe-OH] (Ac-F[Orn]P[d(hCha)]WF-OH) | 50 to 200
CC(C)(C)C(=O)N[C@@H](Cc1ccccc1)C(=O)N[C@@H](CCCN)C(=O)N1CCC[C@H]1C(=O)N[C@H](CC1CCCCC1)C(=O)N[C@@H](Cc1csc2ccccc12)C(=O)N[C@@H](Cc1ccccc1)C(N)=O [Compound 134, ^tBu-CO-Phe-Orn-Pro-cha-Bta-Phe-NH2] (Piv-F[Orn]P[dCha][Bta]F-NH2) | 50 to 200
CC(=O)N[C@@H](CCCCN)C(=O)N[C@@H](Cc1ccccc1)C(=O)N[C@@H](CCCN)C(=O)N1CC[C@H]1C(=O)N[C@H](CC1CCCCC1)C(=O)N[C@@H](Cc1csc2ccccc12)C(=O)N[C@@H](Cc1ccccc1)C(N)=O [Compound 135, Ac-Lys-Phe-Orn-Aze-cha-Bta-Phe-NH2] (Ac-KF[Orn][Aze][dCha][Bta]F-NH2) | 10 to 20
CC(=O)NCC(=O)N[C@@H](Cc1ccccc1)C(=O)N[C@@H](CCCN)C(=O)N1CC[C@H]1C(=O)N[C@H](CC1CCCCC1)C(=O)N[C@@H](Cc1csc2ccccc12)C(=O)N[C@@H](Cc1ccccc1)C(N)=O [Compound 136, Ac-Gly-Phe-Orn-Aze-cha-Bta-Phe-NH2] (Ac-GF[Orn][Aze][dCha][Bta]F-NH2) | 20 to 50
CC(=O)N[C@@H](CCCNC(=N)N)C(=O)N[C@@H](Cc1ccccc1)C(=O)N[C@@H](CCCN)C(=O)N1CC[C@H]1C(=O)N[C@H](CC1CCCCC1)C(=O)N[C@@H](Cc1csc2ccccc12)C(=O)N[C@@H](Cc1ccccc1)C(N)=O [Compound 137, Ac-Arg-Phe-Orn-Aze-cha-Bta-Phe-NH2] (Ac-RF[Orn][Aze][dCha][Bta]F-NH2) | 20 to 50
CC(=O)N[C@@H](Cc1c[nH]cn1)C(=O)N[C@@H](Cc1ccccc1)C(=O)N[C@@H](CCCN)C(=O)N1CC[C@H]1C(=O)N[C@H](CC1CCCCC1)C(=O)N[C@@H](Cc1csc2ccccc12)C(=O)N[C@@H](Cc1ccccc1)C(N)=O [Compound 138, Ac-His-Phe-Orn-Aze-cha-Bta-Phe-NH2] (Ac-HF[Orn][Aze][dCha][Bta]F-NH2) | 50 to 200
CC(=O)N[C@@H](CO)C(=O)N[C@@H](Cc1ccccc1)C(=O)N[C@@H](CCCN)C(=O)N1CC[C@H]1C(=O)N[C@H](CC1CCCCC1)C(=O)N[C@@H](Cc1csc2ccccc12)C(=O)N[C@@H](Cc1ccccc1)C(N)=O [Compound 139, Ac-Ser-Phe-Orn-Aze-cha-Bta-Phe-NH2] (Ac-SF[Orn][Aze][dCha][Bta]F-NH2) | 50 to 200
CC(=O)N[C@@H](Cc1ccc(NC(=N)N)cc1)C(=O)N[C@@H](Cc1ccccc1)C(=O)N[C@@H](CCCN)C(=O)N1CC[C@H]1C(=O)N[C@H](CC1CCCCC1)C(=O)N[C@@H](Cc1csc2ccccc12)C(=O)N[C@@H](Cc1ccccc1)C(N)=O [Compound 140, Ac-Guf-Phe-Orn-Aze-cha-Bta-Phe-NH2] (Ac-[Phe(4-guanidino)]F[Orn][Aze][dCha][Bta]F-NH2) | 50 to 200
CC(=O)N[C@@H](CCN)C(=O)N[C@@H](Cc1ccccc1)C(=O)N[C@@H](CCCN)C(=O)N1CC[C@H]1C(=O)N[C@H](CC1CCCCC1)C(=O)N[C@@H](Cc1csc2ccccc12)C(=O)N[C@@H](Cc1ccccc1)C(N)=O [Compound 141, Ac-Dab-Phe-Orn-Aze-cha-Bta-Phe-NH2] (Ac-[Dab]F[Orn][Aze][dCha][Bta]F-NH2) | 50 to 200
CCN(CC)CCC[C@H](NC(=O)[C@H](Cc1ccccc1)NC(C)=O)C(=O)N1CCC[C@H]1C(=O)N[C@H](CC1CCCCC1)C(=O)N[C@@H](Cc1c[nH]c2ccccc12)C(=O)N[C@@H](Cc1ccccc1)C(N)=O [Compound 143, Ac-Phe-Orn(Et2)-Pro-cha-Trp-Phe-NH2] (Ac-F[X5]P[dCha]WF-NH2) | 50 to 200
CCCC[C@@H]1NC(=O)[C@H](Cc2c[nH]c3ccccc23)NC(=O)[C@@H](CC2CCCCC2)NC(=O)[C@@H]2C[C@@H](O)CN2C(=O)[C@@H](NC(=O)[C@H](Cc2ccccc2)NC(C)=O)CCCNC1=O [Compound 144, Ac-Phe-[Orn-Hyp-cha-Trp-Nle]] (Ac-F[Orn][Hyp][dCha]W[Nle]; lactam 2-C) | 10 to 20
CCCC[C@@H]1NC(=O)[C@H](Cc2c[nH]c3ccccc23)NC(=O)[C@@H](CC2CCCCC2)NC(=O)[C@@H]2C[C@@H](O)CN2C(=O)[C@@H](NC(=O)CCc2ccccc2)CCCNC1=O [Compound 145, 3PP-[Orn-Hyp-cha-Trp-Nle]] (Hydrocinnamoyl-[Orn][Hyp][dCha]W[Nle]; lactam 1-C) | 20 to 50
CC(=O)N[C@@H](Cc1ccccc1)C(=O)N[C@H]1CCCNC(=O)[C@H](Cc2ccc(O)cc2)NC(=O)[C@H](Cc2c[nH]c3ccccc23)NC(=O)[C@@H](CC2CCCCC2)NC(=O)[C@@H]2CCCN2C1=O [Compound 146, Ac-Phe-[Orn-Pro-cha-Trp-Tyr]] (Ac-F[Orn]P[dCha]WY; lactam 2-C) | 20 to 50
CCCC[C@@H]1NC(=O)[C@H](Cc2c[nH]c3ccccc23)NC(=O)[C@@H](Cc2ccccc2C)NC(=O)[C@@H]2CCCN2C(=O)[C@@H](NC(=O)[C@H](Cc2ccccc2)NC(C)=O)CCCNC1=O [Compound 147, Ac-Phe-[Orn-Pro-omf-Trp-Nle]] (Ac-F[Orn]P[dPhe(2-Me)]W[Nle]; lactam 2-C) | 10 to 20
